Here are results for 4 molecules from patent EP4740948A1 (Dong Wha Pharm. Co., Ltd., priority 2023, dated 2025).

In assay [1] the target is EZH1 (Homo sapiens, UniProt Q92800). The assay can be described thus: AlphaLISA enzyme activity inhibition, EZH1. The class given is biochemical. Particulars: for inhibition at 0.005 µM: 5nM test substance; for inhibition at 0.01 µM: 10nM test substance. The essentials: (§1)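 Enzyme inhibition rate was calculated relative to DMSO from AlphaLISA signal, with acceptor beads added after a 2 h methylation reaction and donor beads 1 h later. Each enzyme, EZH1 or EZH2, was pre-mixed with compound (final 5 nM or 10 nM) in Tris buffer pH 8.0 before histone H3 peptide and SAM initiated the reaction.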
Sequence of EZH1 (Q92800 whole entry, species assumed): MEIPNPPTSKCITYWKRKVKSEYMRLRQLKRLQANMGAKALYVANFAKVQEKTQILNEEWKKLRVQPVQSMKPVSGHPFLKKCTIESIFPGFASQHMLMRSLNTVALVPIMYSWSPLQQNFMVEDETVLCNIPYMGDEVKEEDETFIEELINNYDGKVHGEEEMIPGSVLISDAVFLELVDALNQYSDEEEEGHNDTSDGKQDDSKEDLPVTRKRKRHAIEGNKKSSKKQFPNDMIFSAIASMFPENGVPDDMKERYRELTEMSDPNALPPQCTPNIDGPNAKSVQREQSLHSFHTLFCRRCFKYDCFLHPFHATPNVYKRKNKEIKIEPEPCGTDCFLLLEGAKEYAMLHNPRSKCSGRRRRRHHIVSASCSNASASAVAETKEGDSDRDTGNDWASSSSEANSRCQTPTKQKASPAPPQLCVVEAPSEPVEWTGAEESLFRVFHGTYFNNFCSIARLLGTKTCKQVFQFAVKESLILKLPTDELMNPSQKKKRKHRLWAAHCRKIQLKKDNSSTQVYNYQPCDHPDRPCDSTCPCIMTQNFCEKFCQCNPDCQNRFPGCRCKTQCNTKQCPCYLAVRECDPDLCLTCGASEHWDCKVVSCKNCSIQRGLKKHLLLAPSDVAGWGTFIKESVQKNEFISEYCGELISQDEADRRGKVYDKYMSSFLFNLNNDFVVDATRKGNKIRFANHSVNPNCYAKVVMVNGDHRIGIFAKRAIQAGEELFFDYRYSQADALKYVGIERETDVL
Sequence of EZH1 (O75530 whole entry partner, species assumed): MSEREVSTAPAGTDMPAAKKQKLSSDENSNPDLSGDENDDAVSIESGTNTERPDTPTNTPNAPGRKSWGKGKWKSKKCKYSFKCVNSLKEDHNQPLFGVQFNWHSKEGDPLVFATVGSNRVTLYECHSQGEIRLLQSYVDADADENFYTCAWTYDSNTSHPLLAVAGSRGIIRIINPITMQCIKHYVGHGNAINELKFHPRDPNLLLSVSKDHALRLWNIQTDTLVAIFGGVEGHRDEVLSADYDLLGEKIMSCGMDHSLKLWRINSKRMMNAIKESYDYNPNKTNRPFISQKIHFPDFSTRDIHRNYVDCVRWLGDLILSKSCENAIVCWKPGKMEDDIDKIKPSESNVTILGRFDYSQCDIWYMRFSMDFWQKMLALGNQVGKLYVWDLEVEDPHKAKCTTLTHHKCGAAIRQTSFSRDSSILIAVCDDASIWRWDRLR
Sequence of EZH1 (Q15022 whole entry partner, species assumed): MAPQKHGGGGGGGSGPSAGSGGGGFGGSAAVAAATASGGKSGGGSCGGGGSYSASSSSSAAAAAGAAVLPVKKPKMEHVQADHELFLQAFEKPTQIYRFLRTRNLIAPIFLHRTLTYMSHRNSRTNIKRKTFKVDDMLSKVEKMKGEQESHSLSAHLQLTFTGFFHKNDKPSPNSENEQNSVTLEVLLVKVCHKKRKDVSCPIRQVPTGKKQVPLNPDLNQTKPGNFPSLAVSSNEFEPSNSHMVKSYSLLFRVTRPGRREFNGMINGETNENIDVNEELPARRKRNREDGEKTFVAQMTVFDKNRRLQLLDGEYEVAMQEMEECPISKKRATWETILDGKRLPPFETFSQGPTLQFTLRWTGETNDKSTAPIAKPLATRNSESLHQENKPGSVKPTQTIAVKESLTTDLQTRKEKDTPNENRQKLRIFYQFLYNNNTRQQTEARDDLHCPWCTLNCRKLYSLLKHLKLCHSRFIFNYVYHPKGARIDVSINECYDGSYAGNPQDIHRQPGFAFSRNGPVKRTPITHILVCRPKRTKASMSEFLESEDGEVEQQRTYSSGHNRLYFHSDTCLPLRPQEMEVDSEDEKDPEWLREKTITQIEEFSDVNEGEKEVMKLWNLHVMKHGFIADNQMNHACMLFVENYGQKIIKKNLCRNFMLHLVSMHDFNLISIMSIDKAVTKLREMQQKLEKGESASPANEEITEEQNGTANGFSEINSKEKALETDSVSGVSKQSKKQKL
In general terms: In Alpha technology, singlet oxygen from a donor bead excites a nearby acceptor bead.

The target in assay [2] is EZH2 (Homo sapiens, UniProt Q15910). The assay can be described thus: AlphaLISA enzyme activity inhibition, EZH2. The class given is biochemical. Particulars: for inhibition at 0.005 µM: 5nM test substance; for inhibition at 0.01 µM: 10nM test substance. Summed up:
as §1

Assay [3] has as its system Lovo cells. The assay can be described thus: Cancer cell proliferation inhibition (Cell Counting Kit-8), colorectal cancer cell line. Particulars: Homo sapiens, LoVo, 264 h, 1000 nM, cultured seven to 11 days; read-out: % inhibition rate LoVo. The format is cell-based. Summed up:
(§2)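 Single-concentration test: 1000 nM compound, 7-11 day culture after seeding 100 to 1,000 cells per well in 10% FBS medium. Percent inhibition derived from Cell Counting Kit-8 signal relative to untreated control.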

In assay [4] the test system is G401 cells. The assay can be described thus: Cancer cell proliferation inhibition (Cell Counting Kit-8), rhabdoid tumor cell line. The class given is cell-based. Particulars: 1000 nM, cultured seven to 11 days; for inhibition at 1 µM: Homo sapiens, G-401, 264 h, read-out: % inhibition rate G401. Summed up: (§3)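 Single 1000 nM dose of test substance, applied to cells seeded at 100–1,000 per well in 10% FBS medium, then culture for seven to 11 days. CCK-8 read-out; inhibition rate expressed as percent relative to untreated control.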
A general note: Tetrazolium assays rely on reduction of a dye to a coloured formazan, in cell work by metabolically active cells.

The subject of assay [5] is MKN-45 cells. The assay can be described thus: Cancer cell proliferation inhibition (Cell Counting Kit-8), gastric cancer cell line. The format is cell-based. Particulars: Homo sapiens, MKN-45, 264 h, 1000 nM, cultured seven to 11 days; read-out: % inhibition rate MKN -45. The essentials:
as §3

For assay [6], the system named is SW-13 cells. The assay can be described thus: Cancer cell proliferation inhibition (Cell Counting Kit-8), adrenal cancer cell line. The format is cell-based. Conditions: Homo sapiens, SW13, 264 h, 1000 nM, cultured seven to 11 days; read-out: % inhibition rate SW-13. The essentials:
as §2

Assay [7] deals with MIA-PaCa-2 cells. The assay can be described thus: Cancer cell proliferation inhibition (Cell Counting Kit-8), pancreatic cancer cell line. The format is cell-based. Conditions: Homo sapiens, MIA PaCa-2, 264 h, 1000 nM, cultured seven to 11 days; read-out: % inhibition rate MIA-Paca2. The essentials:
as §2

The subject of assay [8] is NCI-H1299 cells. The assay can be described thus: Cancer cell proliferation inhibition (Cell Counting Kit-8), lung cancer cell line. The format is cell-based. Particulars: Homo sapiens, NCI-H1299, 264 h, 1000 nM, cultured seven to 11 days; read-out: % inhibition rate NCI-H129 9. The essentials:
as §2

Where only a bound is given, the exact number is not on record here.

Sequence of EZH2 (Q15910 whole entry, species assumed): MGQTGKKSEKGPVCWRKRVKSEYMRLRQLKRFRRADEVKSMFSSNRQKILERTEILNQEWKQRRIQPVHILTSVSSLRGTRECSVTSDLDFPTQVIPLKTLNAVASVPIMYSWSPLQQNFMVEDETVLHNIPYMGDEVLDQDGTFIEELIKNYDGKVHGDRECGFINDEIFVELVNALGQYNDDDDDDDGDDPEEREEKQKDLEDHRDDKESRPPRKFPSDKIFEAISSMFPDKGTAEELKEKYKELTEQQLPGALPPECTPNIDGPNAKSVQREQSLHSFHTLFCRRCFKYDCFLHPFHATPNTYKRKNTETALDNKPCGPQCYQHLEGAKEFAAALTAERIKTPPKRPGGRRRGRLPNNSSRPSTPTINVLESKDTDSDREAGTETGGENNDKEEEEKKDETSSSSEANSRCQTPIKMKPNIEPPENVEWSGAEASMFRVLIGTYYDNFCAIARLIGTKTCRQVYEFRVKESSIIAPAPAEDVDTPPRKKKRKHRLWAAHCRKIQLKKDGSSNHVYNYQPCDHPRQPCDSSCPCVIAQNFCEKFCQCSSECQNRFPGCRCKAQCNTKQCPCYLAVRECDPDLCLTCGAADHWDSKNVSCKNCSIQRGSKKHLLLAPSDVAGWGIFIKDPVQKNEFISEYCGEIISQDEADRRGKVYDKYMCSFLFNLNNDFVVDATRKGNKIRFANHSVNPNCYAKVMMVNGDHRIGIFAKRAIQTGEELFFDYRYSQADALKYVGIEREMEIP
Sequence of EZH2 (O75530 whole entry partner, species assumed): as the sequence (O75530 whole entry partner, species assumed) above
Sequence of EZH2 (Q15022 whole entry partner, species assumed): as the sequence (Q15022 whole entry partner, species assumed) above

In general, inhibition refers to the share of the control response that was lost under treatment. Consider `CCCCN(C)c1ccc(-c2cc(C(=O)NCc3c(SC)cc(C)[nH]c3=O)c(C)c3c2OC(C)(C2CCN(CC(F)(F)F)CC2)O3)cn1` (stereo not drawn) [Compound 98, 7-(6-(butyl(methyl)amino)pyridin-3-yl)-2,4-dimethyl-N-((6-methyl-4-(methylthio)-2-oxo-1,2-dihydropyridin-3-yl)methyl)-2-(1-(2,2,2-trifluoroethyl)piperidin-4-yl)benzo[d][1,3]dioxole-5-carboxamide], for which the results for the inhibition at 0.005 µM in assay [1] and in assay [2] were 30.9% and 52.2%, respectively. Moreover, the inhibition at 0.01 µM was determined as 17.6% in assay [1] and 48.9% in assay [2]. Also, the inhibition at 1 µM was no less than 70% in assay [3]; 30 to 70% in assay [4]; 30 to 70% in assay [5]; no more than 30% in assay [6]; no more than 30% in assay [7]; no more than 30% in assay [8].

Consider `COc1ccc(F)cc1-c1cc(C(=O)NCc2c(SC)cc(C)[nH]c2=O)c(C)c2c1OC(C)(C1CCC(N(C)C)CC1)O2` (stereo not drawn) [Compound 43, 2-(4-(dimethylamino)cyclohexyl)-7-(5-fluoro-2-methoxyphenyl)-2,4-dimethyl-N-((6-methyl-4-(methylthio)-2-oxo-1,2-dihydropyridin-3-yl)methyl)benzo[d][1,3]dioxole-5-carboxamide], for which the inhibition at 0.005 µM in assay [1] was 65.6%; in assay [2], 94.6%. For the same molecule, the inhibition at 1 µM in assay [3] was no less than 70%; in assay [4] it was no less than 70%; in assay [5], 30 to 70%; in assay [6] it was no more than 30%; in assay [7], no more than 30%; in assay [8] it was 30 to 70%.

`CSc1cc(C)[nH]c(=O)c1CNC(=O)c1cc(-c2ccc(F)cc2)c2c(c1C)OC(C)([C@H]1CC[C@H](N(C)C)CC1)O2` (relative stereo) [Compound 10, 2-(trans-4-(dimethylamino)cyclohexyl)-7-(4-fluorophenyl)-2,4-dimethyl-N-((6-methyl-4-(methylthio)-2-oxo-1,2-dihydropyridin-3-yl)methyl)benzo[d][1,3]dioxole-5-carboxamide]: the inhibition at 0.005 µM in assay [1] was 82.8%; in assay [2], 98.7%. The inhibition at 1 µM is no less than 70% in assay [3]; 30 to 70% in assay [4]; no more than 30% in assay [5]; 30 to 70% in assay [6]; no more than 30% in assay [7]; no more than 30% in assay [8].

As to `CCN1CCC(C2(C)Oc3c(-c4ccc(N5CCOCC5)nc4)cc(C(=O)NCc4c(SC)cc(C)[nH]c4=O)c(C)c3O2)CC1` (single isomer, unassigned) [Compound 66, 2-(1-ethylpiperidin-4-yl)-2,4-dimethyl-N-((6-methyl-4-(methylthio)-2-oxo-1,2-dihydropyridin-3-yl)methyl)-7-(6-morpholinopyridin-3-yl)benzo[d][1,3]dioxole-5-carboxamide], the inhibition at 0.005 µM amounted to 81.3% in assay [1] and 99.3% in assay [2]. In addition, the inhibition at 0.01 µM in assay [1] came out at 90.9%; in assay [2], 99.6%. Besides, the inhibition at 1 µM in assay [3] was 30 to 70%; in assay [5], 30 to 70%; in assay [6], no more than 30%; in assay [7] it was no more than 30%; in assay [8], no more than 30%. For the same molecule, the “% inhibition rate G401” value in assay [4] (1 µM) was “+++ (+++: ≥70%)”.
